Assay results published in PubChem BioAssay (NCI).
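Following 48 hours of exposure in 96-well plates, responses at five concentrations were used to interpolate endpoints linearly. TGI: total growth inhibition.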

How the values were obtained:
Assay in all cases: NCI-60 cell line screen, 48 h
[1] = test system: SN12C renal
[2] = test system: SF-268 CNS
[3] = test system: OVCAR-8 ovarian
[4] = test system: SK-MEL-5 melanoma
[5] = test system: NCI-H23 lung
[6] = test system: RXF 393 renal
[7] = test system: A498 renal
[8] = test system: SNB-19 CNS
[9] = test system: SW-620 colon
[10] = test system: EKVX NSCLC
[11] = test system: NCI-H522 lung
[12] = test system: UACC-257 melanoma
[13] = test system: SF-539 CNS
[14] = test system: HCT-116 colon
[15] = test system: HT29 colon
[16] = test system: KM20L2 colon
[17] = test system: NCI-H460 lung
[18] = test system: RPMI-8226 leukemia

Structure (SMILES)	TGI [1] [µM]	TGI [2] [µM]	TGI [3] [µM]	TGI [4] [µM]	TGI [5] [µM]	TGI [6] [µM]	TGI [7] [µM]	TGI [8] [µM]	TGI [9] [µM]	TGI [10] [µM]	TGI [11] [µM]	TGI [12] [µM]	TGI [13] [µM]	TGI [14] [µM]	TGI [15] [µM]	TGI [16] [µM]	TGI [17] [µM]	TGI [18] [µM]
C/C(=N/NC(=O)c1ccccc1S(N)(=O)=O)C(CN1CCCCC1)C(C1=C(O)C2C=CC=CC2OC1=O)c1ccccc1 (stereo not given)	> 100	> 100	> 100	> 100	> 100	68.4	> 100	> 100	> 100	> 100	> 100	> 100	> 100	> 100	> 100	> 100	> 100	79
O=C(O)CN1CCSc2ccccc2CN(CC(=O)O)CCSc2ccccc2C1	> 100	> 100	> 100	> 100	> 100	–	> 100	> 100	> 100	> 100	> 100	> 100	> 100	> 100	> 100	> 100	> 100	> 100
